Experimental data from patent US20190060275A1, “Administration of hypoxia activated prodrugs and antiangiogenic agents for the treatment of cancer” (Molecular Templates, Inc., priority 2010, published 2019).
Like-named read-outs stand apart in the source and are kept apart here. Marks after values point to notes of the source that are not given here.

Legend:
[1] = tested on: 786-O human renal cell carcinoma (RCC) xenograft; experiment: Tumor growth inhibition in 786-O RCC xenograft; format: in vivo, nude mice
Protocol: (§1) Xenograft tumors were established by s.c. implantation of 5×10^6 786-O human renal cell carcinoma (RCC), 5×10^6 A375 melanoma, or 1×10^6 H460 human non-small cell lung cancer (NSCLC) cells into the flanks of nude mice, or 5×10^6 PLC/PRF/5 hepatocellular carcinoma (HCC) into the flanks of Severe Combined Immunodeficient (SCID) mice. Tumor hypoxia was detected by pimonidazole immunostaining, and morphometric analysis was performed to determine the hypoxic fraction. When tumor size was approximately 100-150 mm^3, sunitinib or sorafenib was administered daily. Sunitinib at 20, 40, or 80 mg/kg was administered p.o. daily for 3 weeks (QDx21). For all of these studies except the study utilizing the A375 melanoma model, TH-302 administration began one week after antiangiogenic agent administration. In the A375 melanoma model, TH-302 administration was begun on the same day as sorafenib administration. TH-302 at 50 mg/kg was administered i.p. daily for 5 days on and 2 days off (QDx5) for 2 weeks. Sunitinib was administered 4 hours before TH-302 on days when both agents were given.
The following tables summarize the data obtained in the studies described above.

[2] = tested on: H460 human non-small cell lung cancer (NSCLC) xenograft; experiment: Tumor growth inhibition in H460 NSCLC xenograft; format: in vivo, nude mice
Protocol: as §1
(§2) In another study, sunitinib was administered for 5 weeks, and TH-302 was administered for 4 weeks, beginning one week after sunitinib therapy was initiated, in accordance with the methods of the invention.

[3] = tested on: 786-O human renal cell carcinoma (RCC) xenograft; experiment: Tumor growth inhibition in 786-O RCC xenograft; format: in vivo, nude mice; remark: listed apart in the source
[4] = Maximum body weight loss in PLC/PRF/5 xenograft-bearing SCID mice; conditions: HCC: PLC/PRF/5; Sorafenib 20 mpk; TH-302 50 mpk; vehicle 5.9
Protocol: as §1, §2

[5] = tested on: A375 melanoma xenograft; experiment: Tumor growth inhibition in A375 melanoma xenograft; format: in vivo, nude mice; conditions: Sorafenib 20 mpk QD×16, TH-302 50 mpk begun on the same day as sorafenib
Protocol: as §1

[6] = tested on: PLC/PRF/5 hepatocellular carcinoma (HCC) xenograft; experiment: Tumor growth inhibition in PLC/PRF/5 HCC xenograft; format: in vivo, SCID mice; conditions: HCC: PLC/PRF/5; Sorafenib 20 mpk QD×16; TH-302 50 mpk
Protocol: as §1

[7] = Maximum body weight loss (toxicity indicator) in xenograft-bearing nude mice
Protocol: as §1, §2

[8] = tested on: breast cancer; conditions: cited from earlier work
[9] = tested on: H460 non small cell lung cancer (NSCLC) xenograft tumors; experiment: Sunitinib-induced hypoxia in H460 xenograft tumors (pimonidazole / Hoechst 33342, morphometrics); format: in vivo, nude mice; conditions: sunitinib 40 mg/kg QDx5 intraperitoneally; vehicle 7.3±3.8%; p<0.05
Protocol: To measure the extent of tumor hypoxia and to illustrate methods for increasing the hypoxic fraction of a tumor with an antiangiogenic agent, so as to render the tumor more susceptible to treatment with a hypoxia activated prodrug, nude mice bearing H460 non small cell lung cancer (NSCLC) xenograft tumors were intraperitoneally administered sunitinib with the dose of 20 mg/kg and 40 mg/kg. QDx5, respectively (5 mice each), and compared with vehicle treated animals (5 mice). […] The percent hypoxic fraction in the harvested tissue was analyzed by morphometrics.

[10] = tested on: 786-O RCC xenograft tumors; experiment: Antiangiogenic-induced hypoxia in 786-O xenograft tumors (pimonidazole / Hoechst 33342, morphometric analysis); format: in vivo, nude mice; conditions: for hypoxic fraction in the 786-O xenograft tumor: morphometric analysis, vehicle 1.4±0.9%; for tumor hypoxia volume: vehicle 0.8±0.2%
Protocol: To measure the extent of tumor hypoxia and to illustrate methods for increasing the hypoxic fraction of a tumor with an antiangiogenic agent, so as to render the tumor more susceptible to treatment with a hypoxia activated prodrug, nude mice bearing 786-O RCC xenograft tumors were randomized into 3 groups, vehicle (8 mice), sunitinib (Sutent, Pfizer) 20 mg/kg and 40 mg/kg, QDx5, oral, respectively (6 mice each). Seventy one hours after the last sunitinib administration, pimonidazole was administered. Hoechst 33342 was administered 1 hour after administering pimonidazole. About a minute after administering the Hoechst 33342, the animals were sacrificed and tissues harvested.
Sorafenib 20 mpk (mgs per kilogram) and 40 mpk were orally administered once daily for 7 days. Pimonidazole was administered 3 h after the last sorafenib administration. Hoechst 33342 was administered 1 h after administering pimonidazole. About a minute after administering the Hoechst 33342, the animals were sacrificed and tissues harvested.

[11] = tested on: RCC; conditions: cited from earlier work
[12] = tested on: PLC/PRF/5 hepatocellular cancer xenograft tumor; experiment: Sorafenib-induced hypoxia in PLC/PRF/5 xenograft tumors; conditions: vehicle 4.3±0.4%
Protocol: The hypoxia level in another cancer, hepatocellular cancer PLC/PRF/5, after sorafenib administration was also measured. The measurement was carried out as above, except that sorafenib was administered at 20 or 40 mg/kg once daily for 8 days.

[13] = tested on: metastatic renal cell carcinoma (mRCC); conditions: cited from earlier work
[14] = tested on: RCC; conditions: cited from earlier work; remark: listed apart in the source
[15] = RCC: 786-O, Sorafenib 30 mpk QD×14, TH-302 50 mpk QDx5/week for two weeks
[16] = H460, Sunitinib 3 wks + TH-302 2 wks study, TH-302 50 mpk monotherapy
[17] = H460, Sunitinib 5 wks + TH-302 4 wks study, TH-302 50 mpk monotherapy
[18] = NSCLC: H460, Sorafenib 20 mpk QD×16, TH-302 50 mpk
[19] = Melanoma: A375, Sorafenib 20 mpk, TH-302 50 mpk
[20] = NSCLC: H460, Sorafenib 20 mpk, TH-302 50 mpk
[21] = RCC: 786-O, Sorafenib 30 mpk, TH-302 50 mpk
[22] = H460, Sunitinib 5 wks + TH-302 4 wks, sunitinib 40 mpk, alone or with TH-302
[23] = H460, Sunitinib 5 wks + TH-302 4 wks, sunitinib 80 mpk, alone or with TH-302

Compound: Cn1c(COP(=O)(NCCBr)NCCBr)cnc1[N+](=O)[O-] [TH-302]
- TGI (%) ([1]; 786-O, TH-302 50 mpk i.p. QDx5 for 2 weeks, monotherapy): 9.9%
- TGI (%) [1, 15]: 15%
- TGI (%) [2, 16]: 67.6* %
- TGI (%) [2, 17]: 81* %
- TGI (%) [2, 18]: 78 * %
- TGI ([3]; TH-302 50 mgs per kg QD×19 or 12 days from Day 8, everolimus QD×19): 16%
- TGI (%) ([3]; TH-302 50 mpk from Day 1 (QD×19), alone or with Everolimus 5 mpk QD×19): 15.7%
- TGI (%) ([3]; TH-302 50 mpk from Day 8 (12 days), alone or with Everolimus 5 mpk QD×19): 14.2%
- Max. BW loss (%) [4]: 6.3%
- TGI (%) [5]: 46 * %
- TGI (%) [6]: 15%
- Max. BW loss (%) ([7]; 786-O RCC, TH-302 50 mpk from Day 1, alone or with Everolimus 5 mpk): 0.2%
- Max. BW loss (%) ([7]; 786-O RCC, TH-302 50 mpk from Day 8, alone or with Everolimus 5 mpk): 0%
- Max. BW loss (%) ([7]; 786-O study, TH-302 50 mpk monotherapy): 0.1%
- Max. BW loss (%) [7, 16]: 7.1%
- Max. BW loss (%) [7, 17]: 0.6%
- Max. BW loss (%) [7, 19]: 1.8%
- Max. BW loss (%) [7, 20]: 4.8%
- Max. BW loss (%) [7, 21]: 0%

Compound: CO[C@H]1C[C@@H]2CC[C@@H](C)[C@@](O)(O2)C(=O)C(=O)N2CCCC[C@H]2C(=O)O[C@H]([C@H](C)C[C@@H]2CC[C@@H](OCCO)[C@H](OC)C2)CC(=O)[C@H](C)/C=C(\C)[C@@H](O)[C@@H](OC)C(=O)[C@H](C)C[C@H](C)/C=C/C=C/C=C/1C [Everolimus, everolimus]
- TGI ([1]; 786-O RCC, TH-302 50 mgs per kg QD×19 or 12 days from Day 8, everolimus QD×19): less than 50%
- TGI (%) ([3]; Everolimus 5 mpk QD×19 monotherapy): 48.8* %
- Max. BW loss (%) ([7]; 786-O RCC, Everolimus 5 mpk monotherapy): 0%

Compound: CC(=O)O[C@H]1C(=O)[C@@]2(C)[C@H]([C@H](OC(=O)c3ccccc3)[C@]3(O)C[C@H](OC(=O)[C@H](O)[C@@H](NC(=O)c4ccccc4)c4ccccc4)C(C)=C1C3(C)C)[C@]1(OC(C)=O)CO[C@@H]1C[C@@H]2O [paclitaxel]
- OS [8]: 26.5 months
- median PFS [8]: 5.8 months

Compound: CCN(CC)CCNC(=O)c1c(C)[nH]c(/C=C2\C(=O)Nc3ccc(F)cc32)c1C [Sunitinib, sunitinib]
- TGI (%) ([1]; 786-O, sunitinib 20 mpk p.o. QDx21, alone or with TH-302 50 mg/kg begun one week later): 16.2%
- TGI (%) ([1]; 786-O, sunitinib 40 mpk p.o. QDx21, alone or with TH-302 50 mg/kg begun one week later): 37.9%
- TGI (%) ([1]; 786-O, sunitinib 40 mpk p.o. QDx21, alone or with TH-302 50 mg/kg begun one week later, listed as sunitinib): 38%
- TGI (%) ([2]; H460, Sunitinib 3 wks + TH-302 2 wks, sunitinib 40 mpk, alone or with TH-302 50 mg/kg): 72.9* %
- TGI (%) ([2]; H460, Sunitinib 3 wks + TH-302 2 wks, sunitinib 80 mpk, alone or with TH-302 50 mg/kg): 77.7* %
- TGI (%) ([2]; H460, Sunitinib 3 wks + TH-302 2 wks, sunitinib 80 mpk, alone or with TH-302 50 mg/kg, listed as sunitinib): 78%
- TGI (%) [2, 22]: 83* %
- TGI (%) [2, 23]: 96* %
- tumor hypoxia volume (percent hypoxic fraction) [9]: 24±3.2%
- Max. BW loss (%) ([7]; 786-O study, sunitinib 20 mpk, alone or with TH-302): 0%
- Max. BW loss (%) ([7]; 786-O study, sunitinib 40 mpk, alone or with TH-302): 0%
- Max. BW loss (%) ([7]; H460, Sunitinib 3 wks + TH-302 2 wks, sunitinib 40 mpk, alone or with TH-302): 0%
- Max. BW loss (%) ([7]; H460, Sunitinib 3 wks + TH-302 2 wks, sunitinib 80 mpk, alone or with TH-302): 0%
- Max. BW loss (%) [7, 22]: 0.1%
- Max. BW loss (%) [7, 23]: 0.5%
- hypoxic fraction in the 786-O xenograft tumor ([10]; sunitinib 20 mg/kg QDx5 oral): 1.6±0.9%
- hypoxic fraction in the 786-O xenograft tumor ([10]; sunitinib 40 mg/kg QDx5 oral): 17.2±0.9%

Compound: CNC(=O)c1cc(Oc2ccc(NC(=O)Nc3ccc(Cl)c(C(F)(F)F)c3)cc2)ccn1 [Sorafenib, sorafenib]
- TGI (%) [1, 15]: 38 * %
- TGI (%) [2, 18]: 74 * %
- median PFS ([11]; placebo 12 weeks): 24 weeks
- OS ([11]; placebo 14.3 months): 17.8 months
- tumor hypoxia volume ([12]; sorafenib 20 mg/kg once daily for 8 days, p<0.05 vs. vehicle): 6.5±0.6%
- tumor hypoxia volume ([12]; sorafenib 40 mg/kg once daily for 8 days, p<0.001 vs. vehicle): 9.3±0.7%
- Max. BW loss (%) [4]: 5.6%
- TGI (%) [5]: 67 * %
- TGI (%) [6]: 56 * %
- Max. BW loss (%) [7, 19]: 3.1%
- Max. BW loss (%) [7, 20]: 4.8%
- Max. BW loss (%) [7, 21]: 0.4%
- tumor hypoxia volume ([10]; sorafenib 20 mg/kg orally once daily for 7 days): 3.5±1.6%
- tumor hypoxia volume ([10]; sorafenib 40 mg/kg orally once daily for 7 days, p<0.05 vs. vehicle): 10±2.5%

Compound: IFN-α
- OS [13]: 23 months
- median PFS [13]: 5.4 months
- OS [14]: 21.8 months
- median PFS [14]: 5 months
